Assay results published in patent publication US20240390457A1, “COMPOSITION AND METHOD OF TREATING BRAIN CANCER” (Morehouse School of Medicine, priority 2023, published 2024).
Where no end group is shown, it is not given here.

How the values were obtained:
[1] = system: A172 cells; assay: Wound-healing assay, A172; type: cell-based, human; details: weak acid pH 7.0
Experimental: (§1) Wound-healing assay was performed. Cells were seeded into a 24-well plate and grown to ˜80% confluence. The cell monolayer was scratched with 200 μl sterile pipette tip and treated with ECF with or without PcTX1 for 3 hours. The original wound areas at 0 hour were photographed with microscope (Olympus FSX100, 4×). After 3 hours, cells were then incubated with culture medium containing 1% FBS for 24 hours. 24 hours later, images were taken from the same location of the original wound areas and the migration distance was measured with Image J software. The wound-healing rate was calculated as: the ratio of wound closure=[(Area of original wound at 0 h−Area of wound after healing at 24 h)/Area of original wound at 0 h]×100%.

[2] = system: U87MG cells; assay: Wound-healing assay, U87MG; type: cell-based, human; details: weak acid pH 7.0
Experimental: as §1
(§2) Next, the study examined whether knock-down of ASIC1 affects cell proliferation in the presence or absence of extracellular weak acid. MTT assay was performed to detect the cell viability at 24 h and 72 h with and without acid treatment both in siRNA-Control and siRNA-ASIC1 groups. […] The study further examined whether knockdown of ASIC1 has an effect on the migration of U87MG cells. […] The effect of ASIC1 knockdown on migration was also assessed by transwell.

[3] = system: A172 cells; assay: Transwell migration assay, A172; type: cell-based, human; details: PcTX1 20 nM, pH 7.0 for 3 h, counted after 24 h
Experimental: (§3) The assay is based on two compartments separated by a mem-brane with an accurately defined pore size. Cell transwell chambers with 8-μm pore size of poly-carbonate membrane filters (Corning, USA) were first pre-coated with poly-L-ornithine over-night. Before plating cells, chambers were incubated with serum-free culture medium for 30 minutes. After that, cells were seeded with culture medium containing 1% FBS in the upper-chambers that were immersed to 750 μl whole medium (DMEM with 10% FBS). After incubating for another 24 hours, some cells on the upper surface of the filter migrated through the membrane to the lower surface of the filter. Cells on the upper face of the filter were wiped out thoroughly with cotton swabs, and those attached on the lower surface were fixed with 4% paraformaldehyde for 15 min. They were then stained with 0.5% crystal violet for 10 min, and let the membrane air dry. The cells on the lower surface of the membrane filter were counted under a microscope in 3-4 random fields with 10× magnification. Cell numbers in each group were normalized to the control groups. Assays were performed in at least 3 independent experiments.
To further examine the role of ASIC1 in glioma cell migration, the study performed a transwell migration assay using inserts with an 8-μm pore size. […]

[4] = system: U87MG cells; assay: Transwell migration assay, U87MG; type: cell-based, human; details: PcTX1, pH 7.0 for 3 h, counted after 24 h
Experimental: as §3, with “experiments. […]” for “experiments.”
Next, the study examined whether knock-down of ASIC1 affects cell proliferation in the presence or absence of extracellular weak acid. […] The effect of ASIC1 knockdown on migration was also assessed by transwell.

[5] = system: U87MG cells; assay: Cell viability (MTT) proliferation assay, U87MG; type: cell-based, human; details: 20 nM PcTX1 with weak acid (pH 7.0), 3 h; different time points
Experimental: (§4) Cells were seeded in 96-well plates overnight and then incubated with pH 7.4 or 7.0 ECF in the absence or presence of 20 nM PcTX1 for 3 h, and then changed to culture medium containing 5% FBS incubating for 24 h, 48 h and 72 h. After the treatments, cell viability was measured by MTT Cell Proliferation Assay Kit according to the manufacturer's instructions. The absorbance values at 540 nm were detected by spectrometer (Molecular devices).
(§5) Severe acidosis (e.g. pH 6.0) promotes the proliferation of some type of glioma cells. This study first tested the effect of weak acid on the proliferation of A172 and U87MG cells. The study used either pH 7.4 or pH 7.0 solution to pretreat cells for 3 h, and then changed back to medium containing 5% FBS. The cell viability was measured at 24 h, 48 h and 72 h after acid treatment by MTT assay.
as §2

[6] = biological target: T1, ASIC1 (Homo sapiens, UniProt P78348); assay: Whole-cell patch-clamp recording of acid-activated currents; type: cell-based; details: PcTX1 20 nM perfusion for several minutes; pH drop 7.4 to 6.0; U87MG cells; n=5
T1 construct: drop of extra-cellular pH from 7.4 to 6.0 can induce transient inward currents in A172 and U87MG cells; endogenous in cells; host or cells: U87MG human glioblastoma cells (ATCC)
T1 sequence (P78348 1-528): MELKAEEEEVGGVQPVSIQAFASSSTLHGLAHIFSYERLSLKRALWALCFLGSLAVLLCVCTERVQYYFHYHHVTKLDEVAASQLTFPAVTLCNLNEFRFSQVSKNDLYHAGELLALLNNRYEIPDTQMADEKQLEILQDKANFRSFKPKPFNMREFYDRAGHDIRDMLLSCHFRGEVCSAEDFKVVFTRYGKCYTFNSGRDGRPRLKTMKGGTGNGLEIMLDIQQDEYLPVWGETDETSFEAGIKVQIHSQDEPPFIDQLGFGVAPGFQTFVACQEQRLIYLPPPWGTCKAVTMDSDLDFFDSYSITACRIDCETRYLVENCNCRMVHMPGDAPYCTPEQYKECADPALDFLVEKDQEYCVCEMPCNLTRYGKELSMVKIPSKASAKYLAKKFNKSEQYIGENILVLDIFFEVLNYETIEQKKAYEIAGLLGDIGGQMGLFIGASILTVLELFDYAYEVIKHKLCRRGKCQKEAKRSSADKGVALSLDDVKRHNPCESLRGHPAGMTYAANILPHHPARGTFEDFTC
Experimental: Whole-cell currents were recorded by patch-clamp techniques. The currents were recorded with an Axopatch 200B amplifier and low-pass filtered at 2 KHz, digitized using Digidata 1320 DAC unit. Cells were clamped at a holding potential of −80 mV. The patch pipettes were made from thin walled borosilicate glass micropipettes (1.5 mm diameter, World Precision Instruments, Sarasota, FL) by a micropipette puller (PP83; Tokyo, Japan). The range of pipette resistance was 3-5 MΩ when filled with intracellular solu-tion contained 140 mM CsF, 1 mM CaCl2, 2 mM MgCl2, 10 mM HEPES, 11 mM EGTA, 2 mM tet-raethylammonium chloride, and 4 mM MgATP; pH 7.3 adjusted with CsOH, 290 to 300 mOsm adjusted with sucrose. Cells were perfused with an extracellular fluid (ECF) contained 140 mM NaCl, 5.4 mM KCl, 2 mM CaCl2, 1 mM MgCl2, 10 mM Glucose, and 10 mM HEPES; pH 7.4 and 6.0 adjusted with NaOH, 320-330 mOsm. […] The data were recorded and analyzed with pClamp and Sigma Plot software.
To determine whether ASIC1 is expressed in human glioma cells, we first investigated the expression of ASIC1 protein in A172 and U87-MG cells by Western blotting. […] Next, the study detected the existence of acid-activated currents and the effect of pharmacologic agents on the currents. Acid-activated currents were recorded by whole cell patch-clamp. […]

[7] = system: A172 cells; assay: Cell viability (MTT) proliferation assay, A172; type: cell-based, human; details: 20 nM PcTX1, 3 h in pH 7.4 or 7.0 ECF; 24 h, 48 h and 72 h
Experimental: as §4, §5

PcTX1 (LECWKRRRSFEVCVPKTPKT; ends and bridges not checked; cysteine pairing not given here)
effect on acid-induced migration of A172 cells (wound-healing and transwell, summary) [1]: effectively blocked
effect on acid-induced migration of U87MG cells (wound-healing and transwell, summary) [2]: effectively blocked
effect on acid induced migration of A172 cells (transwell) [3]: completely inhibited
effect on acid-induced increase of migrated U87MG cells (transwell) [4]: completely blocked
effect on proliferation of U87MG cells (MTT) [5]: no clear effect
decrease of the peak of acid-activated currents [6]: 80%
effect on proliferation of A172 cells (MTT) [7]: no influence
